# In ChEMBL document CHEMBL1201861, “Genomics of Drug Sensitity in Cancer screening data, Wellcome Trust Sanger Institute”:
# Assays:
# Assay in all cases: cells
# [1] = tested on: CAL-85-1; format: functional, cell-based; conditions: Homo sapiens;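 further: growth inhibition of human CAL-85-1 cells, read out with a cell viability assay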
# Description: SANGER: Inhibition of human CAL-85-1 cell growth in a cell viability assay.
# [2] = tested on: NCI-H1792; format: functional, cell-based; conditions: Homo sapiens;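 further: growth inhibition of human NCI-H1792 cells, read out as cell viability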
# Description: SANGER: Inhibition of human NCI-H1792 cell growth in a cell viability assay.
# [3] = tested on: RH-18; format: functional, cell-based; conditions: Homo sapiens, Rh18;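 further: growth inhibition of human RH-18 cells, read out with a cell viability assay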
# Description: SANGER: Inhibition of human RH-18 cell growth in a cell viability assay.
# [4] = tested on: RO82-W-1; format: functional, cell-based; conditions: Homo sapiens;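 further: growth inhibition of human RO82-W-1 cells, measured with a cell viability assay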
# Description: SANGER: Inhibition of human RO82-W-1 cell growth in a cell viability assay.
# [5] = tested on: A549; format: functional, cell-based; conditions: Homo sapiens;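 further: growth inhibition of A549 cells, read out with a cell viability assay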
# Description: SANGER: Inhibition of human A549 cell growth in a cell viability assay.
# [6] = tested on: ACHN; format: functional, cell-based; conditions: Homo sapiens;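 further: cell viability read-out used to gauge how strongly growth of human ACHN cells is suppressed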
# Description: SANGER: Inhibition of human ACHN cell growth in a cell viability assay.
# [7] = tested on: BPH-1; format: functional, cell-based; conditions: Homo sapiens;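 further: cell viability assay measuring growth inhibition of human BPH-1 cells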
# Description: SANGER: Inhibition of human BPH-1 cell growth in a cell viability assay.
# [8] = tested on: NBsusSR; format: functional, cell-based; conditions: Homo sapiens;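 further: growth inhibition of the human cell line, read out with a cell viability assay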
# Description: SANGER: Inhibition of human NBsusSR cell growth in a cell viability assay.
# [9] = tested on: MKN-1; format: functional, cell-based; conditions: Homo sapiens;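 further: growth inhibition of human MKN1 cells, read out by a cell viability measurement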
# Description: SANGER: Inhibition of human MKN1 cell growth in a cell viability assay.
# [10] = tested on: CFPAC-1; format: functional, cell-based; conditions: Homo sapiens;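 further: cell viability readout used to gauge suppression of CFPAC-1 cell proliferation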
# Description: SANGER: Inhibition of human CFPAC-1 cell growth in a cell viability assay.
# [11] = tested on: HCC1569; format: functional, cell-based; conditions: Homo sapiens;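 further: growth inhibition of human HCC1569 cells, read out with a cell viability assay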
# Description: SANGER: Inhibition of human HCC1569 cell growth in a cell viability assay.
# [12] = tested on: OC-314; format: functional, cell-based; conditions: Homo sapiens
# Description: SANGER: Inhibition of human OC-314 cell growth in a cell viability assay.
# [13] = tested on: OVCAR-3; format: functional, cell-based; conditions: Homo sapiens;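 further: growth inhibition of human OVCAR-3 cells, determined by a cell viability assay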
# Description: SANGER: Inhibition of human OVCAR-3 cell growth in a cell viability assay.
# [14] = tested on: PC-3; format: functional, cell-based; conditions: Homo sapiens;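 further: cell viability assay measuring growth inhibition of PC-3 cells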
# Description: SANGER: Inhibition of human PC-3 cell growth in a cell viability assay.
# [15] = tested on: SK-MEL3; format: functional, cell-based, SK-MEL-3; conditions: Homo sapiens;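 further: growth inhibition of human SK-MEL-3 cells, read out with a cell viability assay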
# Description: SANGER: Inhibition of human SK-MEL-3 cell growth in a cell viability assay.
# [16] = tested on: HT-3; format: functional, cell-based; conditions: Homo sapiens;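 further: growth inhibition measured with a cell viability readout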
# Description: SANGER: Inhibition of human HT-3 cell growth in a cell viability assay.
# [17] = tested on: HSC-2; format: functional, cell-based; conditions: Homo sapiens;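 further: growth inhibition of human HSC-2 cells, read out by a cell viability assay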
# Description: SANGER: Inhibition of human HSC-2 cell growth in a cell viability assay.
# [18] = tested on: RT-112; format: functional, cell-based; conditions: Homo sapiens
# Description: SANGER: Inhibition of human RT-112 cell growth in a cell viability assay.
# [19] = tested on: A2058; format: functional, cell-based; conditions: Homo sapiens;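 further: reduction of A2058 cell growth, read out with a viability assay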
# Description: SANGER: Inhibition of human A2058 cell growth in a cell viability assay.
# [20] = tested on: MDA-MB-175-VII; format: functional, cell-based; conditions: Homo sapiens
# [21] = tested on: H-EMC-SS; format: functional, cell-based; conditions: Homo sapiens
# Description: SANGER: Inhibition of human H-EMC-SS cell growth in a cell viability assay.
# [22] = tested on: KNS-62; format: functional, cell-based; conditions: Homo sapiens;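 further: inhibition of cell growth, read out with a cell viability assay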
# Description: SANGER: Inhibition of human KNS-62 cell growth in a cell viability assay.
# [23] = tested on: NCI-H2452; format: functional, cell-based; conditions: Homo sapiens;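 further: growth inhibition of NCI-H2452 cells, read out with a cell viability assay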
# Description: SANGER: Inhibition of human NCI-H2452 cell growth in a cell viability assay.
# [24] = tested on: CAL-51; format: functional, cell-based; conditions: Homo sapiens;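 further: human CAL-51 cell line, growth inhibition read out via a cell viability assay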
# Description: SANGER: Inhibition of human CAL-51 cell growth in a cell viability assay.
# [25] = tested on: SNU-449; format: functional, cell-based; conditions: Homo sapiens
# Description: SANGER: Inhibition of human SNU-449 cell growth in a cell viability assay.
# [26] = tested on: SCC-4; format: functional, cell-based; conditions: Homo sapiens;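 further: growth inhibition of human SCC-4 cells, read out as cell viability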
# Description: SANGER: Inhibition of human SCC-4 cell growth in a cell viability assay.
# [27] = tested on: NCI-H28; format: functional, cell-based; conditions: Homo sapiens;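 further: growth inhibition of human NCI-H28 cells, read out as cell viability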
# Description: SANGER: Inhibition of human NCI-H28 cell growth in a cell viability assay.
# [28] = tested on: NB14; format: functional, cell-based, Homo sapiens; conditions: Homo sapiens, NB14;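 further: growth inhibition of NB14 cells measured with a cell viability assay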
# Description: SANGER: Inhibition of human NB14 cell growth in a cell viability assay.
# [29] = tested on: KP-4; format: functional, cell-based; conditions: Homo sapiens;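 further: human KP-4 cells, with growth inhibition read out through a cell viability assay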
# Description: SANGER: Inhibition of human KP-4 cell growth in a cell viability assay.
# [30] = tested on: HCC1419; format: functional, cell-based; conditions: Homo sapiens;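 further: growth inhibition of human HCC1419 cells, read out as cell viability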
# Description: SANGER: Inhibition of human HCC1419 cell growth in a cell viability assay.
# [31] = tested on: NCI-H810; format: functional, cell-based; conditions: Homo sapiens;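 further: IC50 reflects inhibition of cancer cell line growth, read out with a cell viability assay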
# Description: SANGER: Inhibition of human NCI-H810 cell growth in a cell viability assay.
# [32] = tested on: COLO-741; format: functional, cell-based; conditions: Homo sapiens
# Description: SANGER: Inhibition of human COLO-741 cell growth in a cell viability assay.
# [33] = tested on: ZR-75-30; format: functional, cell-based; conditions: Homo sapiens;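 further: growth inhibition of ZR-75-30 cells, measured with a cell viability readout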
# Description: SANGER: Inhibition of human ZR-75-30 cell growth in a cell viability assay.
# [34] = tested on: 647-V; format: functional, cell-based; conditions: Homo sapiens;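 further: growth inhibition of 647-V cells, read out with a cell viability assay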
# Description: SANGER: Inhibition of human 647-V cell growth in a cell viability assay.
# [35] = tested on: NCI-H1651; format: functional, cell-based; conditions: Homo sapiens;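 further: Read-out is a cell viability assay, with IC50 expressing inhibition of NCI-H1651 cell growth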
# Description: SANGER: Inhibition of human NCI-H1651 cell growth in a cell viability assay.
# [36] = tested on: NCI-H2347; format: functional, cell-based; conditions: Homo sapiens;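 further: growth inhibition of the cell line, read out with a cell viability assay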
# Description: SANGER: Inhibition of human NCI-H2347 cell growth in a cell viability assay.
# [37] = tested on: NCI-H1048; format: functional, cell-based; conditions: Homo sapiens;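 further: growth inhibition of human NCI-H1048 cells, read out with a cell viability assay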
# Description: SANGER: Inhibition of human NCI-H1048 cell growth in a cell viability assay.
# [38] = tested on: GMS-10; format: functional, cell-based; conditions: Homo sapiens;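 further: growth inhibition of GMS-10 cells, read out as cell viability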
# Description: SANGER: Inhibition of human GMS-10 cell growth in a cell viability assay.
# [39] = tested on: T-24; format: functional, cell-based; conditions: Homo sapiens;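 further: growth inhibition of T-24 cells, read out with a cell viability assay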
# Description: SANGER: Inhibition of human T-24 cell growth in a cell viability assay.
# [40] = tested on: U-118-MG; format: functional, cell-based; conditions: Homo sapiens
# Description: SANGER: Inhibition of human U-118-MG cell growth in a cell viability assay.
# [41] = tested on: IGROV-1; format: functional, cell-based; conditions: Homo sapiens;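 further: reduction of IGROV-1 cell growth, read out with a viability assay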
# Description: SANGER: Inhibition of human IGROV-1 cell growth in a cell viability assay.
# [42] = tested on: T84; format: functional, cell-based; conditions: Homo sapiens;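 further: growth inhibition measured with a cell viability readout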
# Description: SANGER: Inhibition of human T84 cell growth in a cell viability assay.
# [43] = tested on: A 172; format: functional, cell-based; conditions: Homo sapiens;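 further: growth inhibition of A172 cells, measured with a cell viability readout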
# Description: SANGER: Inhibition of human A172 cell growth in a cell viability assay.
# [44] = tested on: NCI-H650; format: functional, cell-based; conditions: Homo sapiens;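 further: growth inhibition of NCI-H650 cells, read out by a viability assay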
# Description: SANGER: Inhibition of human NCI-H650 cell growth in a cell viability assay.
smiles,measurement,setting,value
NC(=O)c1ccc(N(C(N)=O)c2c(F)cccc2F)nc1-c1ccc(F)cc1F [VX-702],IC50,[1],> 2 µM
same,IC50,[2],> 2 µM
same,IC50,[3],> 2 µM
same,IC50,[4],> 2 µM
same,IC50,[5],> 2000 nM
same,IC50,[6],> 2 µM
same,IC50,[7],> 2 µM
same,IC50,[8],> 2000 nM
same,IC50,[9],> 2 µM
same,IC50,[10],> 2 µM
same,IC50,[11],> 2 µM
same,IC50,[12],> 2 µM
same,IC50,[13],> 2 µM
same,IC50,[14],> 2 µM
same,IC50,[15],> 2 µM
same,IC50,[16],> 2 µM
same,IC50,[17],> 2 µM
same,IC50,[18],> 2 µM
same,IC50,[19],> 2000 nM
same,IC50,[20],> 2 µM
same,IC50,[21],> 2 µM
same,IC50,[22],> 2 µM
same,IC50,[23],> 2 µM
same,IC50,[24],> 2000 nM
same,IC50,[25],> 2 µM
same,IC50,[26],> 2 µM
same,IC50,[27],> 2000 nM
same,IC50,[28],> 2000 nM
same,IC50,[29],> 2 µM
same,IC50,[30],> 2 µM
same,IC50,[31],> 2 µM
same,IC50,[32],> 2 µM
same,IC50,[33],> 2 µM
same,IC50,[34],> 2 µM
same,IC50,[35],> 2 µM
same,IC50,[36],> 2 µM
same,IC50,[37],> 2000 nM
same,IC50,[38],> 2 µM
same,IC50,[39],> 2 µM
same,IC50,[40],> 2 µM
same,IC50,[41],> 2 µM
same,IC50,[42],> 2 µM
same,IC50,[43],> 2 µM
same,IC50,[44],> 2 µM
O=C(NCCCNc1nc(Nc2cccc(NC(=O)N3CCCC3)c2)ncc1I)c1cccs1 [BX-795],IC50,[1],> 5 µM
same,IC50,[2],> 5 µM
same,IC50,[3],> 5 µM
same,IC50,[4],4.34 µM
same,IC50,[5],2140 nM
same,IC50,[6],> 5 µM
same,IC50,[7],3.14 µM
same,IC50,[8],1250 nM
same,IC50,[9],> 5 µM
same,IC50,[10],> 5 µM
same,IC50,[11],> 5 µM
same,IC50,[12],3.05 µM
same,IC50,[13],> 5 µM
same,IC50,[14],4.17 µM
same,IC50,[15],> 5 µM
same,IC50,[16],> 5 µM
same,IC50,[17],> 5 µM
same,IC50,[18],4.01 µM
same,IC50,[19],2980 nM
same,IC50,[20],> 5 µM
same,IC50,[21],> 5 µM
same,IC50,[22],> 5 µM
same,IC50,[23],4.83 µM
same,IC50,[24],1220 nM
same,IC50,[25],5 µM
same,IC50,[26],> 5 µM
same,IC50,[27],2850 nM
same,IC50,[28],1060 nM
same,IC50,[29],> 5 µM
same,IC50,[30],> 5 µM
same,IC50,[31],3.9 µM
same,IC50,[32],> 5 µM
same,IC50,[33],> 5 µM
same,IC50,[34],> 5 µM
same,IC50,[35],> 5 µM
same,IC50,[36],4.92 µM
same,IC50,[37],1790 nM
same,IC50,[38],4.12 µM
same,IC50,[39],> 5 µM
same,IC50,[40],> 5 µM
same,IC50,[41],> 5 µM
same,IC50,[42],> 5 µM
same,IC50,[43],4.45 µM
same,IC50,[44],3.4 µM
